According to patent US20240287089A1, “Preparation and Uses of 7-Azaindenoisoquinolines” (Purdue Research Foundation, priority 0001, published 2024):
Each block holds one compound with its values, some of them ahead of it.

Assays:
[1] = system: NCI-60 cancer cell lines; test: NCI-60 cytotoxicity assay, MGM; assay type: cell-based; conditions: Homo sapiens; entire panel of NCI-60 cancer cell lines; read-out: MGM (approximate average of GI50 values across the NCI-60 panel)
Procedure: (§1) The antiproliferative activities of the indenoisquinoline compounds are determined in the NCI-60 cancer cell lines of the National Cancer Institute Developmental Therapeutics Program (NCI-DTP). […] Cancer cells are incubated with the test compounds at five concentrations ranging from 100 μM to 10 nM for 48 h. After the treated cancer cells are stained with sulforhodamine B dye, the percentage growth is plotted as a function of the common logarithm of the tested compound concentration. […] The approximate average of GI50 values across the entire panel of NCI-60 cancer cell lines for each compound is recorded as the MGM value.
(§2) NCI-60 Cytotoxicity Assay. Compounds were submitted to the National Cancer Institute Developmental Therapeutic Program to determine their growth-inhibitory potentials in NCI-60 cell lines. All compounds satisfied the pre-screening proceeded into the 5-dose cell viability assay, in which cells were treated for 48 h at 5 dosages ranging from 100 μM to 10 nM.

[2] = system: SF-539 (CNS); test: NCI-60 cytotoxicity assay; assay type: cell-based; conditions: Homo sapiens; SF-539 CNS; 48 h, sulforhodamine B; read-out: Comparative Cytotoxicity GI50, CNS SF-539
Procedure: as §1, §2

[3] = system: DU-145 (Prostate); test: NCI-60 cytotoxicity assay; assay type: cell-based, human; conditions: Homo sapiens; DU-145 prostate; 48 h, sulforhodamine B; read-out: Comparative Cytotoxicity GI50, Prostate DU-145
Procedure: as §1, §2

[4] = system: OVCAR-3 (Ovarian); test: NCI-60 cytotoxicity assay; assay type: cell-based, human; conditions: Homo sapiens; OVCAR-3 ovarian; 48 h, sulforhodamine B; read-out: Comparative Cytotoxicity GI50, Ovarian OVCAR-3
Procedure: as §1, §2

[5] = system: HCT-116 (Colon); test: NCI-60 cytotoxicity assay; assay type: cell-based, human; conditions: Homo sapiens; HCT-116 colon; 48 h, sulforhodamine B; read-out: Comparative Cytotoxicity GI50, Colon HCT-116
Procedure: as §1, §2

[6] = system: UACC-62 (Melanoma); test: NCI-60 cytotoxicity assay; assay type: cell-based, human; conditions: Homo sapiens; UACC-62 melanoma; 48 h, sulforhodamine B; read-out: Comparative Cytotoxicity GI50, Melanoma UACC-62
Procedure: as §1, §2

[7] = system: HOP-62 (Lung); test: NCI-60 cytotoxicity assay; assay type: cell-based, human; conditions: Homo sapiens; HOP-62 lung; 48 h, sulforhodamine B; read-out: Comparative Cytotoxicity GI50, Lung HOP-62
Procedure: as §1, §2

[8] = system: SN12C (Renal); test: NCI-60 cytotoxicity assay; assay type: cell-based, human; conditions: Homo sapiens; SN12C renal; 48 h, sulforhodamine B; read-out: Comparative Cytotoxicity GI50, Renal SN12C
Procedure: as §1, §2

[9] = system: MCF7 (Breast); test: NCI-60 cytotoxicity assay; assay type: cell-based, human; conditions: Homo sapiens; MCF7 breast; 48 h, sulforhodamine B; read-out: Comparative Cytotoxicity GI50, Breast MCE7
Procedure: as §1, §2

[10] = system: Caco-2 cells; test: Caco-2 permeability; assay type: in vitro ADME; conditions: for Efflux Ratio / Recovery (%)AP-BL / Recovery (%)BL-AP: Caco-2; for Papp (A→B) / Papp (B→A): Caco-2, 5 μM, 2 h
[11] = Brain penetration and plasma/brain pharmacokinetics in combination with Temodar or Lynparza
[12] = Temador 125 mg/kg PO + LMP400 10 mg/kg IV, 1 h
[13] = Temador 125 mg/kg PO + LMP400 10 mg/kg IV, 2 h
[14] = Temador 125 mg/kg PO + LMP400 10 mg/kg IV, 4 h
[15] = Temador 125 mg/kg PO + LMP400 10 mg/kg IV, 8 h
[16] = Temador 125 mg/kg PO + LMP400 10 mg/kg IV, 24 h
[17] = Temador 125 mg/kg PO + LMP744 20 mg/kg IV, 0.25 h
[18] = Temador 125 mg/kg PO + LMP744 20 mg/kg IV, 0.5 h
[19] = Temador 125 mg/kg PO + LMP744 20 mg/kg IV, 1 h
[20] = Temador 125 mg/kg PO + LMP744 20 mg/kg IV, 2 h
[21] = Temador 125 mg/kg PO + LMP744 20 mg/kg IV, 4 h
[22] = Temador 125 mg/kg PO + LMP744 20 mg/kg IV, 8 h
[23] = Temador 125 mg/kg PO + LMP744 20 mg/kg IV, 24 h
[24] = Lynparza 100 mg/kg PO + LMP400 10 mg/kg IV, 0.5 h
[25] = Lynparza 100 mg/kg PO + LMP400 10 mg/kg IV, 1 h
[26] = Lynparza 100 mg/kg PO + LMP400 10 mg/kg IV, 2 h
[27] = Lynparza 100 mg/kg PO + LMP400 10 mg/kg IV, 4 h
[28] = Lynparza 100 mg/kg PO + LMP400 10 mg/kg IV, 8 h
[29] = Lynparza 100 mg/kg PO + LMP400 10 mg/kg IV, 24 h
[30] = Lynparza 100 mg/kg PO + LMP744 10 mg/kg IV, 0.25 h
[31] = Lynparza 100 mg/kg PO + LMP744 10 mg/kg IV, 0.5 h
[32] = Lynparza 100 mg/kg PO + LMP744 10 mg/kg IV, 1 h
[33] = Lynparza 100 mg/kg PO + LMP744 10 mg/kg IV, 2 h
[34] = Lynparza 100 mg/kg PO + LMP744 10 mg/kg IV, 4 h
[35] = Lynparza 100 mg/kg PO + LMP744 10 mg/kg IV, 8 h
[36] = Lynparza 100 mg/kg PO + LMP744 10 mg/kg IV, 24 h

Compound: COc1cc2c3c(n(CCCN4CCCCC4)c(=O)c2cc1OC)-c1cc2c(cc1C3=O)OCO2 [A6]
- GI50 [1]: 1050 nM
- GI50 [2]: 1460 nM
- GI50 [3]: 1370 nM
- GI50 [4]: 1630 nM
- GI50 [5]: 420 nM
- GI50 [6]: 1380 nM
- GI50 [7]: 1050 nM
- GI50 [8]: 1610 nM
- GI50 [9]: 140 nM

- Efflux Ratio [10]: 0.70
- Recovery (%)AP-BL [10]: 80.74%
- Recovery (%)BL-AP [10]: 92.73%
- Papp (A→B) [10]: 25.34 10^−6, cm/s
- Papp (B→A) [10]: 17.63 10^−6, cm/s
Compound: CC(C)NCC(O)COc1cccc2ccccc12 (stereo not drawn) [Propranolol]

Compound: CCNCCCn1c2c(c3cc(OC)c(OC)cc3c1=O)C(=O)c1cc(OC)cnc1-2 [A9]
- GI50 [1]: 1540 nM
- GI50 [2]: 800 nM
- GI50 [3]: 2160 nM
- GI50 [4]: 3600 nM
- GI50 [5]: 420 nM
- GI50 [6]: 700 nM
- GI50 [7]: 320 nM
- GI50 [8]: 1440 nM
- GI50 [9]: 160 nM

- Plasma Conc ([11]; Temador 125 mg/kg PO + LMP400 10 mg/kg IV, 0.25 h): 311.591 ± 40.73 µM
- Brain Conc [11, 12]: 102.567 ± 16.241 µM
- Brain/Plasma Conc Ratio [11, 12]: 0.50
- Brain/Plasma Conc Ratio [11, 13]: 0.56
- Plasma Conc [11, 13]: 80.639 ± 5.808 µM
- Brain Conc [11, 14]: 4.739 ± 0.585 µM
- Plasma Conc [11, 14]: 10.345 ± 0.724 µM
- Brain Conc [11, 15]: 1.236 ± 0.654 µM
- Brain/Plasma Conc Ratio [11, 15]: 0.38
- Plasma Conc [11, 15]: 3.295 ± 1.528 µM
- Brain Conc [11, 16]: 0.122 ± 0.004 µM
- Brain/Plasma Conc Ratio [11, 16]: 0.01
- Plasma Conc [11, 16]: 10.009 ± 5.943 µM
- Brain Conc [11, 17]: 123.222 ± 49.748 µM
- Brain/Plasma Conc Ratio [11, 17]: 0.33
- Plasma Conc [11, 17]: 376.314 ± 182.744 µM
- Brain Conc [11, 18]: 83.539 ± 43.505 µM
- Brain/Plasma Conc Ratio [11, 18]: 0.23
- Plasma Conc [11, 18]: 370.863 ± 119.965 µM
- Brain/Plasma Conc Ratio [11, 19]: 0.46
- Plasma Conc [11, 19]: 357.779 ± 86.447 µM
- Brain Conc [11, 20]: 96.544 ± 15.254 µM
- Brain/Plasma Conc Ratio [11, 20]: 0.15
- Brain Conc [11, 21]: 12.75 ± 2.849 µM
- Brain/Plasma Conc Ratio [11, 21]: 0.47
- Plasma Conc [11, 21]: 27.155 ± 4.732 µM
- Brain Conc [11, 22]: 5.765 ± 3.855 µM
- Brain/Plasma Conc Ratio [11, 22]: 0.57
- Plasma Conc [11, 22]: 10.048 ± 6.715 µM
- Brain Conc [11, 23]: 0.914 ± 0.532 µM
- Brain/Plasma Conc Ratio [11, 23]: 0.60
- concentration at 0.25 h ([11]; mouse, brain, oral, Brain Conc, Temador 125 mg/kg PO + LMP400 10 mg/kg IV, 0.25 h): 86.6 ± 10.4 µM
- concentration at 0.5 h ([11]; mouse, brain, oral, Brain Conc, Temador 125 mg/kg PO + LMP400 10 mg/kg IV, 0.5 h): 47.4 ± 24.5 µM
- concentration at 1 h ([11]; mouse, brain, oral, Brain Conc, Temador 125 mg/kg PO + LMP744 20 mg/kg IV, 1 h): 154 ± 38.8 µM
- concentration at 0.5 h ([11]; mouse, plasma, oral, Plasma Conc, Temador 125 mg/kg PO + LMP400 10 mg/kg IV, 0.5 h): 389 ± 66 µM
- concentration at 1 h ([11]; mouse, plasma, oral, Plasma Conc, Temador 125 mg/kg PO + LMP400 10 mg/kg IV, 1 h): 205 ± 27.3 µM
- concentration at 2 h ([11]; mouse, plasma, oral, Plasma Conc, Temador 125 mg/kg PO + LMP744 20 mg/kg IV, 2 h): 552 ± 309 µM
- concentration at 24 h ([11]; mouse, plasma, oral, Plasma Conc, Temador 125 mg/kg PO + LMP744 20 mg/kg IV, 24 h): 1.58 ± 0.509 µM
Compound: Cn1nnc2c(C(N)=O)ncn2c1=O [Temadar]

- Brain Conc ([11]; Lynparza 100 mg/kg PO + LMP400 10 mg/kg IV, 0.25 h): 0.0131 ± 0.00699 µM
- Brain Conc [11, 24]: 0.03336 ± 0.01887 µM
- Plasma Conc [11, 24]: 1.384 ± 0.929 µM
- Brain Conc [11, 25]: 0.05003 ± 0.00979 µM
- Plasma Conc [11, 25]: 2.644 ± 0.762 µM
- Brain Conc [11, 26]: 0.03044 ± 0.01589 µM
- Plasma Conc [11, 26]: 1.637 ± 1.051 µM
- Brain Conc [11, 27]: 0.01839 ± 0.00859 µM
- Plasma Conc [11, 27]: 0.755 ± 0.46 µM
- Brain Conc [11, 28]: BLOQ
- Plasma Conc [11, 28]: 0.166 ± 0.208 µM
- Brain Conc [11, 29]: BLOQ
- Plasma Conc [11, 29]: BLOQ
- Brain Conc [11, 30]: BLOQ
- Plasma Conc [11, 30]: 0.345 ± 0.101 µM
- Brain Conc [11, 31]: 0.0121 ± 0.00053 µM
- Brain/Plasma Conc Ratio [11, 31]: 0.02
- Plasma Conc [11, 31]: 0.555 ± 0.0934 µM
- Brain Conc [11, 32]: 0.0141 ± 0.0073 µM
- Brain/Plasma Conc Ratio [11, 32]: 0.01
- Plasma Conc [11, 32]: 0.961 ± 0.189 µM
- Brain Conc [11, 33]: 0.0449 ± 0.02008 µM
- Plasma Conc [11, 33]: 1.61 ± 0.968 µM
- Brain Conc [11, 34]: 0.0254 ± 0.00652 µM
- Plasma Conc [11, 34]: 1.11 ± 0.25 µM
- Brain Conc [11, 35]: BLOQ
- Plasma Conc [11, 35]: 0.314 ± 0.185 µM
- Brain Conc [11, 36]: BLOQ
- Plasma Conc [11, 36]: BLOQ
- concentration at 0.25 h ([11]; mouse, plasma, oral, Plasma Conc, Lynparza 100 mg/kg PO + LMP400 10 mg/kg IV, 0.25 h): 0.506 ± 0.423 µM
Compound: O=C(c1cc(Cc2n[nH]c(=O)c3ccccc23)ccc1F)N1CCN(C(=O)C2CC2)CC1 [Lynparza]

- Efflux Ratio [10]: 3.39
- Recovery (%)AP-BL [10]: 79.64%
- Recovery (%)BL-AP [10]: 94.99%
- Papp (A→B) [10]: 9.28 10^−6, cm/s
- Papp (B→A) [10]: 31.47 10^−6, cm/s
Compound: COc1cc2nc(N3CCN(C(=O)c4ccco4)CC3)nc(N)c2cc1OC [Prazosin]
